Assay [1] in a line: ABTS radical scavenging assay. In kind it is biochemical. As to conditions: mean ± SD (n = 3).
A short description of assay [2]: Ferric reducing/antioxidant power (FRAP) assay. The assay is classed as biochemical. As to conditions: mean ± SD (n = 3). The procedure: The antioxidant activity of the isolated compounds was determined using ABTS and FRAP assays in triplicate, and the average values were considered.
Herein, antioxidant potential was measured based on the samples’ ability to reduce ferric to ferrous ion. This method relies on the reduction of ferricyanide relative to the sample. Samples (1 mL) were mixed with 2.5 mL of each of sodium phosphate buffer and K3Fe (CN)6, and then the reaction mixture was incubated (50 °C, 20 min). Afterward, 2.5 mL of trichloroacetic acid was added, and centrifugation (1000× g, 10 min) was carried out. Some 2.5 mL of the supernatant solution and an equal amount of deionized H2O and 0.5 mL of ferric chloride were then mixed, and the absorbance was recorded at 700 nm.

Values after ≈ are worked out from the molar mass of the structure shown.

With `O=C1O[C@H]([C@@H](O)CO)C(O)=C1O` [Ascorbic acid, reference compound], the “IC50 Value ABTS Assay” value in assay [1] is recorded as 10.67 ± 0.85 µg/mL (≈ 60.6 µM). In assay [2], the “IC50 Value FRAP Assay” value turned out to be 20.86 ± 1.28 µg/mL (≈ 118 µM).

With `Oc1cc(O)cc(O)c1` [Compound 1, phloroglucinol], the “IC50 Value ABTS Assay” value in assay [1] was 6.44 ± 0.47 µg/mL (≈ 51.1 µM). The “IC50 Value FRAP Assay” value in assay [2] is on record as 12.89 ± 0.93 µg/mL (≈ 102 µM).

Consider `OC[C@H]1O[C@@H](Oc2cc(O)cc(O)c2)[C@H](O)[C@@H](O)[C@@H]1O` [Compound 2, 3,5-dihydroxyphenyl β-D-glucopyranoside], for which, in assay [1], the “IC50 Value ABTS Assay” value was 43.40 ± 3.18 µg/mL (≈ 151 µM). The “IC50 Value FRAP Assay” value in assay [2] was 64.52 ± 4.15 µg/mL (≈ 224 µM).

As for `COc1cc(-c2oc3cc(O)cc(O)c3c(=O)c2OC2OC(COC3OC(C)C(O)C(O)C3O)C(O)C(O)C2O)ccc1O` (stereo not shown) [Compound 3, isorhamnetin 3-O-rutinoside], the “IC50 Value ABTS Assay” value in assay [1] is listed as 12.24 ± 0.61 µg/mL (≈ 19.6 µM). Further, the “IC50 Value FRAP Assay” value in assay [2] came out at 25.24 ± 2.03 µg/mL (≈ 40.4 µM).

Take `COc1cc(-c2oc3cc(O)cc(O)c3c(=O)c2OC2OC(COC3OC(C)C(OC4OC(C)C(O)C(O)C4O)C(O)C3O)C(O)C(O)C2O)ccc1O` (stereo not drawn) [Compound 5, Isorhamnetin 3-O-[α-rhamnopyranosyl-(1→4)-α-rhamnopyranosyl-(1→6)-β-glucopyranoside]]: the “IC50 Value ABTS Assay” value in assay [1] turned out to be 18.19 ± 2.94 µg/mL (≈ 23.6 µM). The “IC50 Value FRAP Assay” value in assay [2] is 35.04 ± 2.89 µg/mL (≈ 45.5 µM).

The values above are taken from article PMC10574154, “Antioxidant and Anti-Aging Phytoconstituents from Faucaria tuberculosa: In Vitro and In Silico Studies” (Molecules, 2023).
